Where a name gives a salt, the structure may show the parent alone.
Assays:
Format in all cases: in vivo
[1] = system: ICR mice; assay: Acute toxicity, intravenous injection, determination of LD50
Description: 1) Determination of LD50 (Tables III and IV): ICR mice, 18 ˜20 g, were divided into five groups, with 10 animals in each group (half male and half female). The ratio of doses between groups was 1:0.85.

[2] = system: ICR mice; assay: Acute toxicity, oral gavage, determination of the maximal dose
Description: The dose is based on maximal dissolution rate and maximal administered volume of the drug.

[3] = system: SD rats; assay: RT, TT, PT, APTT and FIB in rat plasma after administration; design: FIB (Fibrillation) / RT (Clot Retraction Time) / TT (Thrombin Time): unit not given here
Procedure: Blood was taken at 0.5 h and 1.5 h after i.v. injection and at 1 h and 3 h after i.g. and plasma RT,TT,PT,APTT and FIB were determined.

[4] = i.v. 0.25 mg/kg, first time point (0.5 h)
[5] = i.v. 0.25 mg/kg, second time point (1.5 h)

## CC1CNc2c(cccc2S(=O)(=O)N2C(=O)C3CC(C)CCN3C(=O)C2CCCNC(=N)N)C1 [NPI1999, (3S,6R,8R)-Bicyclo[4.4.0]-1,4-diaza-3-(3-guanidinopropyl)-4-N-(1,2,3,4-tetrahydro-3-methyl-8-quinolinesulfonyl)-8-methyl-2,5-decanedione, hydrochoride salt]
[1]; i.v. 12.75 mg/kg, ♂, 4-13 days after administration
  Number of death: 0
[1]; i.v. 12.75 mg/kg, ♂, 1 day after administration
  Number of death: 0
[1]; i.v. 12.75 mg/kg, ♂, 2 days after administration
  Number of death: 0
[1]; i.v. 12.75 mg/kg, ♂, 3 days after administration
  Number of death: 0
[1]; i.v. 12.75 mg/kg, ♂, day of administration
  Number of death: 4
[1]; i.v. 15.00 mg/kg
  Death rate (%): 90%
[1]; i.v. 15.00 mg/kg, 10 mice
  Number of deaths: 9
[1]; i.v. 15.00 mg/kg, ♀, 4-13 days after administration
  Number of death: 0
[1]; i.v. 15.00 mg/kg, ♀, 1 day after administration
  Number of death: 0
[1]; i.v. 15.00 mg/kg, ♀, 2 days after administration
  Number of death: 0
[1]; i.v. 15.00 mg/kg, ♀, 3 days after administration
  Number of death: 0
[1]; i.v. 15.00 mg/kg, ♀, day of administration
  Number of death: 4
[1]; i.v. 15.00 mg/kg, ♂, 4-13 days after administration
  Number of death: 0
[1]; i.v. 15.00 mg/kg, ♂, 1 day after administration
  Number of death: 0
[1]; i.v. 15.00 mg/kg, ♂, 2 days after administration
  Number of death: 0
[1]; i.v. 15.00 mg/kg, ♂, 3 days after administration
  Number of death: 0
[1]; i.v. 15.00 mg/kg, ♂, day of administration
  Number of death: 5
[2]; ICR mice, i.g.
  Maximal dose of oral gavage: 2860 mg/kg
  maximal dose of i.g.: 2.86 g/kg/day
[2]; i.g. 1.43 g/kg twice, up to one week
  mortality: No mortality was observed
[3]; 0.125 mg/kg i.v., 0.5 h
  APTT (Activated Partial Prothromboplastin Time): 28.0 ± 4.0
  FIB (Fibrillation): 4.2 ± 0.9
  PT (Prothrombin Time): 25.3 ± 5.8
  RT (Clot Retraction Time): 83.7 ± 9.7
  TT (Thrombin Time): 53.6 ± 11.1
[3]; 0.125 mg/kg i.v., 1.5 h
  APTT (Activated Partial Prothromboplastin Time): 28.1 ± 4.6
  FIB (Fibrillation): 4.5 ± 1.2
  PT (Prothrombin Time): 25.0 ± 7.1
  RT (Clot Retraction Time): 60.4 ± 15.9
  TT (Thrombin Time): 39.2 ± 12.5
[3]; 0.25 mg/kg i.v., 0.5 h
  APTT (Activated Partial Prothromboplastin Time): 46.7 ± 15.0
  FIB (Fibrillation): 2.09 ± 0.5
  PT (Prothrombin Time): 43.1 ± 17.8
  RT (Clot Retraction Time): 107.6 ± 33.7
  TT (Thrombin Time): 62.1 ± 15.8
[3]; 0.25 mg/kg i.v., 1.5 h
  APTT (Activated Partial Prothromboplastin Time): 34.1 ± 10.3
  FIB (Fibrillation): 2.7 ± 0.8
  PT (Prothrombin Time): 34.6 ± 10.1
  RT (Clot Retraction Time): 78.6 ± 16
  TT (Thrombin Time): 49.6 ± 10.9
[3]; 75 mg/kg i.g., 1 h
  APTT (Activated Partial Prothromboplastin Time): 30.2 ± 6.9
  FIB (Fibrillation): 4.4 ± 0.7
  PT (Prothrombin Time): 26.6 ± 5.5
  RT (Clot Retraction Time): 74.8 ± 16.6
  TT (Thrombin Time): 53.2 ± 10.0
[3]; 75 mg/kg i.g., 3.0 h
  APTT (Activated Partial Prothromboplastin Time): 25.7 ± 4.0
  FIB (Fibrillation): 4.5 ± 0.6
  PT (Prothrombin Time): 26.6 ± 5.7
  RT (Clot Retraction Time): 77 ± 29.9
  TT (Thrombin Time): 42.5 ± 9.4
[3]; i.g. 75 mg/kg, 1 h or 3 h
  RT, TT, PT, APTT, FIB indexes: None of the indexes was significantly affected
[3]; i.v. 0.125 mg/kg, first time point
  RT, TT, PT, APTT, FIB indexes: RT alone was increased
[3]; i.v. 0.125 mg/kg, second time point
  RT, TT, PT, APTT, FIB indexes: none of the indexes were affected significantly
[3]; [4]
  FIB: reduced
  RT, TT, PT and APTT: significantly increased
[3]; [5]
  APTT and FIB: no significantly affected
  RT, TT, PT: Only RT,TT,PT were increased

Source: US20050096323A1, “Diketopiperazine derivatives to inhibit thrombin” (NovoScience Pharma Inc., priority 1999, published 2005)
